Assay results as given in US20050267096A1, “New indazole and indolone derivatives and their use pharmaceuticals” (Pfizer Inc, priority 2004, published 2005).

How the values were obtained:
dopamine D3 receptor = dopamine D3 receptor (Homo sapiens, UniProt P35462); test: D3/D2 agonist assay, functional potency at D3 receptor; type: cell-based
Procedure: (§1) Activity at the dopamine D3 receptor may be determined using the methods described in WO 2004/052372. […] Selectivity is calculated as the D2 EC50 value divided by the D3 EC50 value. Where the value of the D2 EC50 was >10000, a figure of 10000 was used in the calculation.
(§2) Against the D2 receptor this compound gave only a 28% repsonse (relative to the maximal effect of pramipexole) at 1000 nM. Suitable auxiliary active agents for use in the combinations of the present invention include: • 1) Naturally occurring or synthetic prostaglandins or esters thereof. Suitable prostaglandins for use herein include compounds such as alprostadil, prostaglandin E1, prostaglandin E0, 13,14-dihydroprosta glandin E1, prostaglandin E2, eprostinol, natural synthetic and semi-synthetic prostaglandins and derivatives thereof including those described in WO-00033825 and/or U.S. Pat. No. 6,037,346 issued on 14 Mar. 2000 all incorporated herein by reference, PGE0, PGE1, PGA1, PGB1, PGF1 α, 19-hydroxy PGA1, 19-hydroxy-PGB1, PGE2, PGB2, 19-hydroxy-PGA2, 19-hydroxy-PGB2, PGE3α, carboprost tromethamine dinoprost, tromethamine, dinoprostone, lipo prost, gemeprost, metenoprost, sulprostune, tiaprost and moxisylate; • 2) α-adrenergic receptor antagonist compounds also known as α-adrenoceptors or α-receptors or α-blockers. […]

dopamine D2 receptor = dopamine D2 receptor (Homo sapiens, UniProt P14416); test: D3/D2 agonist assay, functional response at D2 receptor; type: cell-based; settings: at 1000 nM; relative to the maximal effect of pramipexole
Procedure: as §1, §2

dopamine D3 receptor, sequence (P35462 whole entry, species assumed): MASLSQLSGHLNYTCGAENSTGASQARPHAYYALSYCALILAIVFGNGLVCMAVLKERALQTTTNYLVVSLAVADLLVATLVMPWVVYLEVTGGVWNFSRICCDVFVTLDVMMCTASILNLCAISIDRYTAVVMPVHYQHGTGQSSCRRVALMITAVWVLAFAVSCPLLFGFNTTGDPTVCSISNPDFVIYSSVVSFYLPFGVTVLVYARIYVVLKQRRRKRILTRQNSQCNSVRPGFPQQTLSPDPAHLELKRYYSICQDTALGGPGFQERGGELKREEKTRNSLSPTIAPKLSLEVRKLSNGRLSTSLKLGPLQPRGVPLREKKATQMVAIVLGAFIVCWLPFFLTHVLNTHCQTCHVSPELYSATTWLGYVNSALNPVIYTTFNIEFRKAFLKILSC
dopamine D2 receptor, sequence (P14416 whole entry): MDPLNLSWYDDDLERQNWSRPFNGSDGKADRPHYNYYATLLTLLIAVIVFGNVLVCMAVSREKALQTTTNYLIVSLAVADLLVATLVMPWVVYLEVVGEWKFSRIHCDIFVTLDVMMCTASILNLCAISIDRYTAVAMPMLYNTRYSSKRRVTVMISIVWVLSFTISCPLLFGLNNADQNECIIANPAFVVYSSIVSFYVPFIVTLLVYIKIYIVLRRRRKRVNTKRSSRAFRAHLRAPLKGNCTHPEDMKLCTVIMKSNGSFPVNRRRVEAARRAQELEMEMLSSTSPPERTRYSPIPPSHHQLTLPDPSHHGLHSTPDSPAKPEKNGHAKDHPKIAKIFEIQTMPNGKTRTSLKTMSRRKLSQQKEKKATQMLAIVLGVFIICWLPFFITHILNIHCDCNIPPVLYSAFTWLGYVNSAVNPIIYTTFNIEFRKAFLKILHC

## CCCN1CC(c2cccc3[nH]ncc23)C1 [Example 13, 4-(1-propylazetidin-3-yl)-1H-indazole]
Dopamine D3 receptor; methods described in WO 2004/052372, read-out: functional potency at the D3 receptor, expressed as an EC50
  EC50: 38 nM
Dopamine D3 receptor; relative to the maximal effect of standard agent pramipexole, read-out: Emax (maximal response value) at the D3 receptor
  Emax: 74%
Dopamine D2 receptor
  response against the D2 receptor: 28%
